As usually defined, the IC50 is the concentration needed to halve the response being measured.

The source of these data is patent US5569658A, “Tricyclic derivatives” (Zeneca Limited, priority 1993, dated 1996).

One test has as its target T1, receptor tyrosine kinase (Homo sapiens, UniProt P00533).
T1 construct: Receptor tyrosine kinase was obtained in partially purified form from A-431 cells; endogenous in cells; host or cells: A-431 cells (human vulval carcinoma); partially purified, Triton X-100 solubilised membrane fraction
Briefly: in vitro assay: inhibition of the enzyme receptor tyrosine kinase (Test (a)). The note with it: partially purified enzyme from A-431 cells; EGF; peptide substrate, [γ-32P]ATP; 25° C., 10 minutes. Type of test: biochemical. How it is done:
(a) An in vitro assay which determines the ability of a test compound to inhibit the enzyme receptor tyrosine kinase. Receptor tyrosine kinase was obtained in partially purified form from A-431 cells (derived from human vulval carcinoma) by procedures related to those described by Carpenter et al., J. Biol. Chem., 1979, 254, 4884, Cohen et al., J. Biol. Chem., 1982, 257, 1523 and by Braun et al., J. Biol. Chem., 1984, 259, 2051.
A-431 cells were grown to confluence using Dulbecco's modified Eagle's medium (DMEM) containing 5% fetal calf serum (FCS). The obtained cells were homogenised in a hypotonic borate/EDTA buffer at pH 10.1. The homogenate was centrifuged at 400 g for 10 minutes at 0°-4° C. The supernatant was centrifuged at 25,000 g for 30 minutes at 0°-4° C. […]
The test compound/EGF mixture solution (5 μl) was added to the test enzyme solution (10 μl) and the mixture was incubated at 0°-4° C. for 30 minutes. […] Radioactivity present in the filter paper was measured using a liquid scintillation counter (Sequence A). […]
Receptor tyrosine kinase inhibition was calculated as follows: [formula]
The extent of inhibition was then determined at a range of concentrations of test compound to give an IC50 value.

For test [1], the system named is human naso-pharyngeal cancer cell line KB. Put plainly: in vitro assay: inhibition of growth of the human naso-pharyngeal cancer cell line KB (Test (b)). Type of test: cell-based. The note with it: 72 h, EGF (10 ng/ml), 3 days, MTT. How it is done: (b) An in vitro assay which determines the ability of a test compound to inhibit the growth of the human naso-pharyngeal cancer cell line KB.
KB cells were seeded into wells at a density of 1×10^4 -1.5×10^4 cells per well and grown for 24 hours in DMEM supplemented with 5% FCS (charcoal-stripped). Cell growth was determined after incubation for 3 days by the extent of metabolism of MTT tetrazolium dye to furnish a bluish color. Cell growth was then determined in the presence of EGF (10 ng/ml) or in the presence of EGF (10 ng/ml) and a test compound at a range of concentrations. An IC50 value could then be calculated.

The subject of a further test is liver hepatocyte. Briefly: in vivo assay: inhibition of TGFα-stimulated liver hepatocyte growth in rats (Test (c)). Conditions: TGFα 400 μg/kg subcutaneously; for ED50: Rattus norvegicus, Hepatocyte, male rats, usually oral, approximate ED50, read-out: ED50 in Test (c), inhibition of liver hepatocyte proliferation (BrdU uptake). Set-up: species or system rat. As for the experimental part: (c) An in vivo assay in a group of male rats which determines the ability of a test compound (usually administered orally as a ball-milled suspension in 0.5% polysorbate) to inhibit the stimulation of liver hepatocyte growth caused by the administration of the growth factor TGFα (400 μg/kg subcutaneously, usually dosed twice, 3 and 7 hours respectively after the administration of the test compound).
In a control group of rats, the administration of TGFα causes on average a 5-fold stimulation of liver hepatocyte growth.
Cell-growth in the control and test animals is determined as follows:
On the morning of the day after the dosing of the test compound (or 0.5% polysorbate in the control group), the animals are dosed with bromodeoxyuridine (BrdU; 100 mg/kg intraperitoneally). The animals are killed four hours later and the livers are excised. […] Further tests were carried out using a range of doses of the test compounds to allow the calculation of an approximate ED50 value for the inhibition of liver hepatocyte proliferation as determined by inhibition of the uptake of BrdU.

The test system of test [2] is human mammary carcinoma which expresses epidermal growth factor (EGF) receptor tyrosine kinase. Conditions: athymic nude mice; Toi et al., 1990; cited from earlier work.
Test [3] relates to another carcinoma which does not express EGF receptor tyrosine kinase. The note with it: Toi et al., 1990; cited from earlier work.

T1 sequence (P00533 25-1210): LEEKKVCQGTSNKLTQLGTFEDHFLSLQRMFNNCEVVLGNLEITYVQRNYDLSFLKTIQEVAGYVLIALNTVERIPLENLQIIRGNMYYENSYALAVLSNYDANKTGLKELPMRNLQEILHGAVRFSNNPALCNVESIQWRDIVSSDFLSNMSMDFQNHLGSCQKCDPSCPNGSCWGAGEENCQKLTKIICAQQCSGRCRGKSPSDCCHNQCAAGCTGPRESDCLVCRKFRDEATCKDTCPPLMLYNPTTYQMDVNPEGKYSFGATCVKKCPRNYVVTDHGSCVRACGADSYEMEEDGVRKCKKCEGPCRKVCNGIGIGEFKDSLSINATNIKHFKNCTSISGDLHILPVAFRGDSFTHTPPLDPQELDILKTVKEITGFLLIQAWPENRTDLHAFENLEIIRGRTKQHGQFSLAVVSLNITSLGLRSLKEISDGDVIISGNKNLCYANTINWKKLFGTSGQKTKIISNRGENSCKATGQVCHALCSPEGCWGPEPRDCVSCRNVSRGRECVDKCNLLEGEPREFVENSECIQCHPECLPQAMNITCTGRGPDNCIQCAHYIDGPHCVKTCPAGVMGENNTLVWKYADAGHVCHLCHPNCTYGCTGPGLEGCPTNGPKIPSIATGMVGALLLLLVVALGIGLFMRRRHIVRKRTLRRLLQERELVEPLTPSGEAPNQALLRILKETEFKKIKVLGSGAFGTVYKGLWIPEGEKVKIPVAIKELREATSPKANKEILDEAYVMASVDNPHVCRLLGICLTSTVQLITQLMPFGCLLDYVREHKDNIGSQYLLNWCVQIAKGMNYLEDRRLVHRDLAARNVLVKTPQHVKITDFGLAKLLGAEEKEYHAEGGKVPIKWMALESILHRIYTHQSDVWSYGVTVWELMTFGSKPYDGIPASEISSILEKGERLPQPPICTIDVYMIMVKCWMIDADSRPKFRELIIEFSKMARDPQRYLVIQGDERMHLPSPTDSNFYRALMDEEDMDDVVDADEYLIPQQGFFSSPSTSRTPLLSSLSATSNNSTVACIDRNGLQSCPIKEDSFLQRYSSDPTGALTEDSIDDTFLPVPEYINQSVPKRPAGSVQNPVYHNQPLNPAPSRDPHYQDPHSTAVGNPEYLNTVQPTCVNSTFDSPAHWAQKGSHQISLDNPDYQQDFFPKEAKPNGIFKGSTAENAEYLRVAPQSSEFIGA

Consider `Cc1cccc(Nc2ncnc3cc4c(cc23)[nH]c(=O)n4C)c1` [3-methyl-8-(3'-methylanilino)-1,2-dihydro-3H-imidazo[4,5-g]quinazolin-2-one], for which the half-maximal inhibitory concentration (IC50) at receptor tyrosine kinase is 16 nM; in test [1], 1190 nM. In addition, the ED50 in the test with liver hepatocyte is < 12.5 mg/kg.
Take `Cc1cccc(Nc2ncnc3cc4c(cc23)ncn4C)c1` [3-methyl-8-(3'-methylanilino)-3H-imidazo[4,5-g]-quinazoline]: the IC50 on receptor tyrosine kinase stood at 35 nM; in test [1] it was 970 nM. Moreover, in the test with liver hepatocyte, the ED50 was < 5 mg/kg.
Consider `O=CN/C=C/c1cc(O)ccc1O` [erbstatin], for which the “effect on tumour growth, carcinoma expressing EGF receptor tyrosine kinase” value in test [2] is “specifically attenuates the growth”. In test [3], the “effect on tumour growth, carcinoma not expressing EGF receptor tyrosine kinase” value is “without effect”.
With TGFα: the growth factor TGFα, the “stimulation of liver hepatocyte growth” value in the test on liver hepatocyte (control group of rats, on average) is listed as ~5 -fold.
